Measured values taken from PubChem BioAssay AID1159565 (GlaxoSmithKline (GSK), 2015).
Calls of active or inactive are those of the source. No rule for the calls is given here.

Tested on: T. cruzi-infected H9C2 cardiomyocytes, high-content imaging
Experiment: anti-T. cruzi activity in infected cardiomyocytes – imaging, H9C2 host cardiomyocytes, host toxicity (AID 1159565);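 also: infected cells incubated 72 h after plating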
[1] = measured here: H9C2 host cell toxicity
[2] = measured here: amastigotes per cell

Structure (SMILES) | IC50 | IC50 [1] [nM] | IC50 [2] [nM]
Cn1c(CC(=O)NNC(=O)c2ccc3ccccc3n2)nc2ccccc21 | 5000 nM | > 50000 | 6300
CC(C)n1c(-c2nonc2N)nc2cccc(OCCN3CCCC3)c21 | 16000 nM | 32000 | 25000
FC(F)(F)c1cc(C2CCCN(Cc3c[nH]c4ccccc34)C2)nc2ncnn12 (stereo unspecified) | 10000 nM | > 50000 | 6300
CCN(CC)c1nc(N(C)C)nc2c1CN(Cc1ccccc1)CC2 | 20000 nM | > 50000 | 4000
Cc1ccc(C)c(OC2CCN(C(=O)C(C)n3ccnc3)CC2)c1 (stereo unspecified) | 400 nM | > 50000 | 320
N#Cc1cc(N2CCCC2=O)ccc1Sc1ccccc1CO | 400 nM | > 50000 | 250
Cc1nn(-c2nc3ccccc3s2)c2c1C(c1ccc(OCC(N)=O)cc1)SCC(=O)N2 (stereo unspecified) | > 50000 nM (inactive) | > 50000 | > 50000
COc1ccc(CNc2nsc3ccccc23)cc1OC | 25000 nM | > 50000 | 20000
Cc1cccc(Nc2nc(-c3ccccn3)cs2)n1 | 1000 nM | 630 | 790
Cc1nn(C)c(Cl)c1CN(Cc1cccnc1)Cc1ccsc1 | 320 nM | > 50000 | 320
CCOc1ccc(N(C)S(=O)(=O)c2ccc3[nH]cc(C(=O)NC4CCCC4)c(=O)c3c2)cc1 | > 50000 nM (inactive) | > 50000 | 6300
CCCN(Cc1ccc(OC)c(OC)c1)Cc1cc(=O)c2c(C)cc(C)cc2[nH]1 | 2000 nM | > 50000 | 500
c1ccc(Nc2nc3ccccc3[nH]2)nc1 | 25000 nM | 10000 | 10000
Nc1cc(-c2ccc3ncnc(N4CCOCC4)c3c2)cnc1N | 5000 nM | 3200 | 1600
CC1(C)CCC(=Cc2ccc(Cl)cc2)CC1(O)Cn1ccnc1 (stereo unspecified) | 7.9 nM | 32000 | 5
O=C(NCCc1csc(-c2cccc(F)c2)n1)c1ccco1 | 1600 nM | 10000 | 1300
O=C(NCc1nnc2n1CCCCC2)c1csc(-c2ccccc2)n1 | 2000 nM | > 50000 | 2000
Cc1c(C#N)c([N+](=O)[O-])nn1Cc1cccc(Cl)c1Cl | 100 nM | > 50000 | 40
CCN(Cc1ccncc1)Cc1ccc(NC(=O)c2cc(-c3ccc(F)cc3)n[nH]2)cc1 | 250 nM | > 50000 | 250
O=c1oc2ccccc2n1C1CCN(Cc2ccccc2-c2cccnc2)CC1 | 320 nM | > 50000 | 400
Cc1ncsc1CNc1cnc(-c2ccc3c(c2)OCCO3)c(-c2cnn(C)c2)c1 | 40000 nM | > 50000 | 20000
N#Cc1ccccc1S(=O)(=O)N1CCN(C(=O)CNC(=O)c2ccc3c(c2)OCO3)CC1 | 1000 nM | > 50000 | 630
CS(=O)(=O)c1cccc(-c2cnc(N)c3c(-c4ccc(CO)cc4)csc23)c1 | 630 nM | > 50000 | 320
Cc1ccc(S(=O)(=O)Nc2ccc(CN3CCN(C(=O)c4cccc(C)c4)CC3)cc2)cc1 | 320 nM | > 50000 | 320

Structure (SMILES) | IC50 | IC50 [1] [nM] | IC50 [2] [nM]
Nc1nc(-c2ccccn2)nc(N)c1Cc1c(F)cccc1Cl | 2000 nM | 1300 | 1600
O=C(CSc1ccc(-c2ccccn2)nn1)Nc1ccc(Cl)cc1 | 2500 nM | > 50000 | 2000
COc1ccc(CN2C(=O)C(O)(CC(=O)c3ccncc3)c3cc(Br)ccc32)cc1OC (stereo unspecified) | 25000 nM | 2000 | 13000
CS(=O)(=O)NC1CCC(Nc2ncc(Br)c(Nc3ccccc3C(N)=O)n2)CC1 (stereo unspecified) | 5000 nM | 500 | 2000
O=C(Cn1cnc([N+](=O)[O-])n1)Nc1ccc(Cl)cc1C(=O)c1ccccc1 | 1300 nM | > 50000 | 320
N#Cc1cnc(Nc2cccc(CCN3CCOCC3)c2)nc1Nc1ccccc1C(N)=O | 3200 nM | 13 | 2000
CC(Cn1ccnc1)NC(=O)C1CC1c1cccc(Cl)c1Cl (stereo unspecified) | 250 nM | > 50000 | 200
Cc1nn(-c2nc(N)nc(-c3ccccn3)n2)c(C)c1Cc1ccccc1 | 3200 nM | 20000 | 2000
NC(=O)c1ncc(N[C@@H]2CCCNC2)nc1Nc1cccc(Cl)c1 | 400 nM | 1300 | 250
COc1ccc2c(Cl)c(C(=O)N3CCC3)sc2c1Cl | 2500 nM | > 50000 | 790
C=CCN(Cc1cccs1)C(=O)CSc1nnc(-c2ccc3c(c2)OCO3)o1 | 630 nM | > 50000 | 500
Cc1nc2nc(C)c(Cc3ccc(C(C)C)cc3)c(=O)n2[nH]1 | 790 nM | > 50000 | 250
Cc1ccnc(NS(=O)(=O)c2ccc(NC(=O)c3ccc([N+](=O)[O-])s3)cc2)n1 | 10000 nM | 5000 | 6300
O=C1OCc2ccc(Nc3nccc(-c4cnn5ncccc45)n3)cc21 | 63 nM | 25 | 32
O=C(Nc1nc(-c2ccc(S(=O)(=O)N3CCOCC3)cc2)cs1)c1ccc([N+](=O)[O-])cc1 | 1600 nM | > 50000 | 500
CCn1nccc1CN(C)C(=O)C=Cc1ccc(Cl)cc1 | 320 nM | > 50000 | 320
Cc1ccc(NC(=O)c2ccc([N+](=O)[O-])s2)cc1S(=O)(=O)N1CCOCC1 | 400 nM | 5000 | 250
CC(C)COC(=O)Nc1ccc(N2CCC(CNS(=O)(=O)c3ccccc3)CC2)c(F)c1 | 7900 nM | > 79000 | 7900
NC(=O)c1ncccc1Nc1nc(NC2CCC(O)CC2)ncc1Br (stereo unspecified) | 2000 nM | 630 | 500
O=C(c1ccc(OCCCc2cnc[nH]2)cc1)C1CC1 | 1600 nM | > 50000 | 1300
COCCn1c(-c2ccccc2)cnc1NCc1ccccc1OC | 16000 nM | > 50000 | 6300
CCCN1CCN(Cc2ccc(S(=O)(=O)Nc3cccc(C)c3)cc2)CC1 | 790 nM | > 50000 | 630
CCc1cccc(CC)c1-n1c(SCC(=O)N2CC(=O)Nc3ccccc32)nnc1-c1cccnc1 | 32000 nM | > 50000 | 25000
Nc1nc(-c2ccccn2)nc(-n2nc(-c3ccccc3)cc2N)n1 | 2500 nM | 2000 | 320

Structure (SMILES) | IC50 | IC50 [1] [nM] | IC50 [2] [nM]
Cc1occc1C(=O)Nc1ccccc1C(=O)Nc1nccs1 | > 50000 nM (inactive) | > 50000 | 32000
COc1ccccc1CNc1cc(C2CC2)nc(-c2nccn2C)n1 | 790 nM | 630 | 1000
N#Cc1c(Oc2cccc(Cl)c2)cccc1[N+](=O)[O-] | 630 nM | 16000 | 130
O=C(c1cccc(Nc2ncc(-c3ccc4c(c3)OCO4)cn2)c1)N1CCSC1 | 250 nM | 1000 | 200
Oc1c(-c2n[nH]c(CCc3ccccc3)n2)ncc2cccnc12 | 200 nM | 16000 | 200
Cc1cc(NC(=O)C2CCCCC2)n(-c2nc3c(c(=O)[nH]2)CCC3)n1 | 500 nM | 2000 | 160
CC1CN(S(=O)(=O)c2ccc(NC(=O)c3cc(C4CC4)nc4c3cnn4C(C)C)cc2)CC(C)O1 (stereo unspecified) | 790 nM | > 50000 | 630
CCC(c1ccc(F)cc1)n1cncc1-c1cnn(C)c1 (stereo unspecified) | 320 nM | > 50000 | 320
CCC(=O)Nc1ccc(-c2nc3ccc(Cl)cc3[nH]2)cc1 | 1600 nM | > 50000 | 500
Cc1ccccc1NS(=O)(=O)c1ccc2[nH]cc(C(=O)NC3CCCC(C)C3C)c(=O)c2c1 (stereo unspecified) | 6300 nM | 6300 | 3200
Cc1ccccc1OCC(=O)N1CCCN(c2cccnn2)CC1 | 630 nM | > 50000 | 500
O=C(NC1CCN(C2Cc3ccc(NS(=O)(=O)c4cc(F)cc(F)c4)cc3C2)CC1)C1CC1 (stereo unspecified) | > 50000 nM (inactive) | > 50000 | > 50000
CC(Cn1ccnc1)NC(=O)COc1ccc(Cl)c(Cl)c1 (stereo unspecified) | 500 nM | > 50000 | 400
O=C(COc1ncnc2cc([N+](=O)[O-])ccc12)NC(=O)NC1CCCCC1 | 1000 nM | > 50000 | 500
Cc1nc(-c2ccncc2)ncc1C(C)NC(=O)c1ccc(Cl)s1 (stereo unspecified) | 32000 nM | > 50000 | 20000
COc1cnc2ccc(=O)n(CCN3CCC(NC(=O)Cc4ccc(Cl)c(Cl)c4)CC3)c2c1 | 400 nM | 6300 | 160
O=C1CN(C2CCCc3c(OCc4ccncc4)cccc32)C(=O)N1C1CCCCC1 (stereo unspecified) | 16 nM | > 50000 | 13
CC(C)Nc1nccc(-c2c(-c3ccc(F)cc3)ncn2C2CCOCC2)n1 | 320 nM | > 50000 | 200
O=C(CCc1ccc(-c2ccccc2)o1)N1CCN(c2ccc(O)cc2)CC1 | 1300 nM | > 50000 | 790
N#Cc1cccc(CNc2ccc(-c3cnn(CC4CC4)c(=O)c3C#N)cc2)c1 | 7900 nM | > 50000 | 5000
CC(=O)Nc1ccc(-c2ccnc(Nc3cccc(C#N)c3)n2)cc1 | 6300 nM | 13000 | 3200
COc1ccc2ncc(=O)n(CCN3CCOC(CNCc4ccc(C(F)(F)F)cc4F)C3)c2n1 (stereo unspecified) | 1600 nM | > 50000 | 630
O=C(CN(c1cccc(C(F)(F)F)c1)S(=O)(=O)c1ccc(Cl)cc1)NCc1ccc(F)c(F)c1 | 790 nM | > 50000 | 500
CCC(CC)C(=O)Nc1ccc(-c2nnc(-c3ccc(OC)cc3)o2)cc1 | 13000 nM | > 50000 | 4000
